Laboratory results from ChEMBL document CHEMBL4619774 (J Med Chem, 2020).
pIC50: −log10 of the molar value.

Assays:
[1] = Volume of distribution at steady state in Sprague-Dawley rat at 1 mg/kg, iv administered as bolus dose by HPLC-MS/MS analysis; assay type: ADME, organism-based; details: in vivo, read-out: Vdss
[2] = target: Prostaglandin G/H synthase 1 (Homo sapiens, UniProt P23219); experiment: Inhibition of COX1 (unknown origin)
[3] = Oral bioavailability in Sprague-Dawley rat at 30 mg/kg via gavage by HPLC-MS/MS analysis; assay type: ADME, organism-based; details: in vivo
[4] = Clearance in C57BL/6 mouse at 0.4 mg/kg, iv bolus injection or 3 mg/kg, po by LC-MS/MS analysis; assay type: ADME, organism-based; details: in vivo
[5] = AUC (0 to t) in Sprague-Dawley rat at 1 mg/kg, iv administered as bolus dose by HPLC-MS/MS analysis; assay type: ADME, organism-based; details: in vivo
Coagulation factor VII = target: T1, Coagulation factor VII (Homo sapiens, UniProt P08709); assay type: single protein
T1 sequence (P08709 whole entry): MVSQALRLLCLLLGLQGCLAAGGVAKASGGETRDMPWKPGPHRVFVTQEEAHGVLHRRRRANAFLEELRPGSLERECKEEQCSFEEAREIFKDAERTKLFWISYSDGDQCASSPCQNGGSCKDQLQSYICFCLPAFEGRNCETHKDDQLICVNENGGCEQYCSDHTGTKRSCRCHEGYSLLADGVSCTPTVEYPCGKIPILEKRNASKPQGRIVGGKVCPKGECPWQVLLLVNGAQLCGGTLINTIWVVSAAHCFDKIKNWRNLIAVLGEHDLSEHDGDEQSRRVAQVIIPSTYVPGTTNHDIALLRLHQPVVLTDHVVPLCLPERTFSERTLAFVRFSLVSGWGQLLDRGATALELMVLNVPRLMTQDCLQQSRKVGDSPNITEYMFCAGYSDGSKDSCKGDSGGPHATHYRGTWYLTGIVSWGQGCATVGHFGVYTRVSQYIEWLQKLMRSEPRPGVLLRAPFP

Coagulation factor X = Coagulation factor X (Homo sapiens, UniProt P00742); assay type: single protein
Chain of Coagulation factor X (P00742 41-179 limits assumed): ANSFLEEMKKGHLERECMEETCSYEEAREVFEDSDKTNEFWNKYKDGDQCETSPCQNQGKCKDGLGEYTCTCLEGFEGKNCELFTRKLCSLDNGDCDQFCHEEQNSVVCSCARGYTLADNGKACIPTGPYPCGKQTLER
Chain of Coagulation factor X (P00742 235-488 limits assumed): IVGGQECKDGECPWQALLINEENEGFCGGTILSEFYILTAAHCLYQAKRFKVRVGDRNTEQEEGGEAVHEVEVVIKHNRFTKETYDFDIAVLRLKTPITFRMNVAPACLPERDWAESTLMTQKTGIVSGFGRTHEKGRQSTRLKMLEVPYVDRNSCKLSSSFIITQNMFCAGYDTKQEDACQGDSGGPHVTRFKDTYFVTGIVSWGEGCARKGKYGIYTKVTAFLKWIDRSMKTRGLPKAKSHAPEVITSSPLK

[6] = Dose normalized Cmax in Sprague-Dawley rat at 3 mg/kg, po via gavage by HPLC-MS/MS analysis; assay type: ADME, organism-based; details: in vivo
[7] = Oral bioavailability in beagle dog at 10 mg/kg via gavage by HPLC-MS/MS analysis; assay type: ADME, organism-based, Canis lupus familiaris; details: in vivo
[8] = Oral bioavailability in Sprague-Dawley rat at 3 mg/kg via gavage by HPLC-MS/MS analysis; assay type: ADME, organism-based; details: in vivo
[9] = Dose normalized Cmax in C57BL/6 mouse at 100 mg/kg, po by LC-MS/MS analysis; assay type: ADME, organism-based; details: in vivo
[10] = Half life in beagle dog at 1 mg/kg, iv by HPLC-MS/MS analysis; assay type: ADME, organism-based, Canis lupus familiaris; details: in vivo
[11] = Dose normalized Cmax in beagle dog at 75 mg/kg, po via gavage by HPLC-MS/MS analysis; assay type: ADME, organism-based, Canis lupus familiaris; details: in vivo
[12] = Tmax in C57BL/6 mouse at 0.4 mg/kg, iv bolus injection or 3 mg/kg, po by LC-MS/MS analysis; assay type: ADME, organism-based; details: in vivo
[13] = Dose normalized Cmax in C57BL/6 mouse at 0.4 mg/kg, iv bolus injection or 3 mg/kg, po by LC-MS/MS analysis; assay type: ADME, organism-based; details: in vivo
[14] = Dose normalized AUC (0 to t) in Sprague-Dawley rat at 100 mg/kg, po via gavage by HPLC-MS/MS analysis; assay type: ADME, organism-based; details: in vivo
[15] = target: 3',5'-cyclic-AMP phosphodiesterase 4D (Homo sapiens, UniProt Q08499); experiment: Inhibition of PDE4D (unknown origin)
Chain of 3',5'-cyclic-AMP phosphodiesterase 4D (Q08499 whole entry): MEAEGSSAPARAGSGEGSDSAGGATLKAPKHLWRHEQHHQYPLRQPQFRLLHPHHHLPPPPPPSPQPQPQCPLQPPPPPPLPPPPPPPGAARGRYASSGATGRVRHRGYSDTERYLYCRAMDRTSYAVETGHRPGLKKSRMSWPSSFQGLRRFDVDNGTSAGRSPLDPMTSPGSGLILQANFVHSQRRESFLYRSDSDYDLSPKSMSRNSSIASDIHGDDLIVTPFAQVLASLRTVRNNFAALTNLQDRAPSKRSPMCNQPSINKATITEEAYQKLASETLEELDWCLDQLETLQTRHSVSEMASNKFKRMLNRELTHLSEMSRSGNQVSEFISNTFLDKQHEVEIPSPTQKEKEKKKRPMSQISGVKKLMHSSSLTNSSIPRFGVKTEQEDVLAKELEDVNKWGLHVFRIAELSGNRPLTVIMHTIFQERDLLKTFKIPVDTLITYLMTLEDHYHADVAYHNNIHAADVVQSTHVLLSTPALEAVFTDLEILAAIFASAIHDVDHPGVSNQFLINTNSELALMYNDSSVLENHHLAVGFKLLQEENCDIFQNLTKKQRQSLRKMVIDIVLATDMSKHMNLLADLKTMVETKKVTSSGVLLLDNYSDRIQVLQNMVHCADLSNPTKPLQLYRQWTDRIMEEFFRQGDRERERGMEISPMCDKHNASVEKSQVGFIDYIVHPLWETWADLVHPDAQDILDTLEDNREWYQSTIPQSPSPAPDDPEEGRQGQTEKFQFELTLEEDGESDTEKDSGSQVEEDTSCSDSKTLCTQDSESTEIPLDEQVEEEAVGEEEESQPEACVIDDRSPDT

[16] = Clearance in Sprague-Dawley rat at 1 mg/kg, iv by HPLC-MS/MS analysis; assay type: ADME, organism-based; details: in vivo
[17] = target: T2, Peroxisome proliferator-activated receptor gamma (Homo sapiens) (UniProt P37231); experiment: Binding affinity to PPARgamma (unknown origin) at 10 uM
T2 sequence (whole entry): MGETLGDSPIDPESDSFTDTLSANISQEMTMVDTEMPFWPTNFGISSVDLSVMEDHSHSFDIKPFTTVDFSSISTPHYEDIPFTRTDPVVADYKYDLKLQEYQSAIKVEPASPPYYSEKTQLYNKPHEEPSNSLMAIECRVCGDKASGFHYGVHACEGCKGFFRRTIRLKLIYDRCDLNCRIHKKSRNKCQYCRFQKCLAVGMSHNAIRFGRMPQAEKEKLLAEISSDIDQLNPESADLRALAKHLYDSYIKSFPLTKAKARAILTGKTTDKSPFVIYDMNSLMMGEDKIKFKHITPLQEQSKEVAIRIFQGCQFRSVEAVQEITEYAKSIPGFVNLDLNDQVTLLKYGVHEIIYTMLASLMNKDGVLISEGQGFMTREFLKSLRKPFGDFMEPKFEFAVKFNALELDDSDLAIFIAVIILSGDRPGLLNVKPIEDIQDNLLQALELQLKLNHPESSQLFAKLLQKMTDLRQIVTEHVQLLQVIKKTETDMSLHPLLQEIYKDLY

Coagulation factor XI = Coagulation factor XI (Homo sapiens, UniProt P03951); experiment: Inhibition of human F11a using D-Leu-Pro-Arg*Rh110-D-Pro as substrate preincubated for 60 mins followed by substrate addition and measured after 60 mins by fluorescence assay
Chain of Coagulation factor XI (P03951 19-387 limits assumed): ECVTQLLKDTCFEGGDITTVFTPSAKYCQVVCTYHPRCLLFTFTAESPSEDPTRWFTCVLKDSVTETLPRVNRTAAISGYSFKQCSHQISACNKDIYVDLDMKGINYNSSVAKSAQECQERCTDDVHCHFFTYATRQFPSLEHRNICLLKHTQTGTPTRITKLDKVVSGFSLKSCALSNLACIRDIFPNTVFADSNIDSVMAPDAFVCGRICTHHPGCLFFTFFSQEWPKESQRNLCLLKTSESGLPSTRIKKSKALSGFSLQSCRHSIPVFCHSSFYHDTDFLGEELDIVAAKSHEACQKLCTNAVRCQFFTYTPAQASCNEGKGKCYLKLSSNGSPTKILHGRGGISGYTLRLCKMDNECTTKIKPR
Chain of Coagulation factor XI (P03951 388-625 limits assumed): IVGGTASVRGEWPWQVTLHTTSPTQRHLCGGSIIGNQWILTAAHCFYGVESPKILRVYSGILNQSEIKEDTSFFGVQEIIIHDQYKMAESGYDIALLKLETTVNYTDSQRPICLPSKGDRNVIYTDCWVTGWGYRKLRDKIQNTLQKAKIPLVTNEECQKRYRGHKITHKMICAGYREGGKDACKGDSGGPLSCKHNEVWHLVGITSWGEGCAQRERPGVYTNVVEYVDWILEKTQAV

[18] = Dose normalized AUC in C57BL/6 mouse at 3 mg/kg, po by LC-MS/MS analysis; assay type: ADME, organism-based; details: in vivo
[19] = target: Urokinase-type plasminogen activator (Homo sapiens, UniProt P00749); assay type: single protein
[20] = Apparent permeability across apical to basolateral side in MDCK-MDR1 cells; assay type: ADME, cell-based, Canis lupus familiaris; details: dog
Plasminogen = Plasminogen (Homo sapiens, UniProt P00747); assay type: single protein
Chain of Plasminogen (P00747 97-580 limits assumed): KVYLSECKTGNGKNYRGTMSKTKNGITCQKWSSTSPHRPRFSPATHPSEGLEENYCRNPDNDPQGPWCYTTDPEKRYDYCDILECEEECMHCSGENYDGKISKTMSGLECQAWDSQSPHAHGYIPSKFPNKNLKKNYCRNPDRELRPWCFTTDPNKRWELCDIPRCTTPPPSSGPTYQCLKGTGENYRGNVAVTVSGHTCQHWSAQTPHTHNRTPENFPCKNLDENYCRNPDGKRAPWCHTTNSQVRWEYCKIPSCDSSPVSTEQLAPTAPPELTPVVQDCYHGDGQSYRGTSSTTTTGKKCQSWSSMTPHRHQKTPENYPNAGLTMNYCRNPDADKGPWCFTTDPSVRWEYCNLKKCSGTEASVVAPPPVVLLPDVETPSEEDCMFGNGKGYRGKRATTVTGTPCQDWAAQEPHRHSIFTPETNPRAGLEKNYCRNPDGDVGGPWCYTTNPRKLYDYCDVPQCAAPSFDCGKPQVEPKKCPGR
Chain of Plasminogen (P00747 581-810 limits assumed): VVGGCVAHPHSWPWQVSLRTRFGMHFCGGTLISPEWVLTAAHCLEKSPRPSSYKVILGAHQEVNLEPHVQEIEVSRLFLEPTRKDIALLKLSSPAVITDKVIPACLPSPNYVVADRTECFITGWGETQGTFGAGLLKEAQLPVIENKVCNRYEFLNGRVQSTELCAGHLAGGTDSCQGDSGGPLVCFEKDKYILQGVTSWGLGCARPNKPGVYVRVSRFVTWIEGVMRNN

[21] = Oral bioavailability in C57BL/6 mouse at 3 mg/kg by LC-MS/MS analysis; assay type: ADME, organism-based; details: in vivo
physchem = details: buffer, pH 7.4
[22] = Clearance in beagle dog at 1 mg/kg, iv administered as bolus dose by HPLC-MS/MS analysis; assay type: ADME, organism-based, Canis lupus familiaris; details: in vivo
[23] = Half life in Sprague-Dawley rat at 1 mg/kg, iv administered as bolus dose by HPLC-MS/MS analysis; assay type: ADME, organism-based; details: in vivo
Plasma = experiment: Effect on coagulation in human plasma assessed as concentration required to double the prothrombin time by thromboplastin-DS reagent based automated coagulometric method; assay type: ADME, cell-free
[24] = Terminal half life in C57BL/6 mouse at 0.4 mg/kg, iv bolus injection or 3 mg/kg, po by LC-MS/MS analysis; assay type: ADME, organism-based; details: in vivo, read-out: beta t1/2 (converted)
[25] = Oral bioavailability in Sprague-Dawley rat at 100 via gavage mg/kg by HPLC-MS/MS analysis; assay type: ADME, organism-based; details: in vivo, 100 mg/kg
[26] = Tmax in C57BL/6 mouse at 100 mg/kg, po by LC-MS/MS analysis; assay type: ADME, organism-based; details: in vivo
[27] = Dose normalized AUC (0 to t) in beagle dog at 75 mg/kg, po via gavage by HPLC-MS/MS analysis; assay type: ADME, organism-based, Canis lupus familiaris; details: in vivo

Chain of Prostaglandin G/H synthase 1 (P23219 whole entry): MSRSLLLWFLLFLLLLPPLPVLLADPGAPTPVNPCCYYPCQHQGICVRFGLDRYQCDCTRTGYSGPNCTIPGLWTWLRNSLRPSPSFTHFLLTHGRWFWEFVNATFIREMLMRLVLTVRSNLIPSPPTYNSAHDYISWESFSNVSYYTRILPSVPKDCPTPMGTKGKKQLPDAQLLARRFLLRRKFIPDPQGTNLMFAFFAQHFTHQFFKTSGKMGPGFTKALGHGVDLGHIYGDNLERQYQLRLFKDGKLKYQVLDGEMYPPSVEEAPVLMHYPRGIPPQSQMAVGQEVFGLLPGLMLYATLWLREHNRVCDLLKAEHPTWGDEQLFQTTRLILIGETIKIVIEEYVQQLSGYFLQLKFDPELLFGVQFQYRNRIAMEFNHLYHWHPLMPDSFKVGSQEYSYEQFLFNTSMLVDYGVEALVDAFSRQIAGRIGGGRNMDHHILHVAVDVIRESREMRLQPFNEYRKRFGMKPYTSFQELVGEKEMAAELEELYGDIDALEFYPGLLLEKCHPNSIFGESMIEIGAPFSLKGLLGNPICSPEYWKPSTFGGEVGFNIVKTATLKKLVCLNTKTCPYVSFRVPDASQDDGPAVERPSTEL

- Vd [1]: 1.3 L/kg
- pIC50 [2]: 5.37
- bioavailability [3]: 19%
- clearance [4]: 11 mL/min/kg
- AUC(0-t) [5]: 3.33 µM·h
- pIC50 (Coagulation factor VII): 5.44
- pIC50 (Coagulation factor X): 5.98
- Cmax/dose [6]: 77 nM
- bioavailability [7]: 5%
- bioavailability [8]: 10%
- Cmax/dose [9]: 26795 nM
- half-life [10]: 2.8 h
- Cmax/dose [11]: 504 nM
- Tmax [12]: 1 h
- Cmax/dose [13]: 494 nM
- AUCt/dose [14]: 1770 nM·h
- pIC50 [15]: 5.62
- clearance [16]: 9.4 mL/min/kg
- Activity [17]: 65%
- pIC50 (Coagulation factor XI): 9.40
- AUC/dose [18]: 1297 nM·h
- pIC50 [19]: 6.77
- Papp A→B [20]: 0.4 ×10⁻⁶ cm/s
- pIC50 (Plasminogen): 5.72
- bioavailability [21]: 16%
- logD (physchem): 2.2
- clearance [22]: 4.4 mL/min/kg
- half-life [23]: 6.4 h
- 2PT (Plasma): 28.7 µM
- half-life [24]: 3.73 h
- bioavailability [25]: 45%
- Tmax [26]: 4 h
- AUCt/dose [27]: 2200 nM·h
Compound: CC(C)c1cc(-c2ccc3c(c2)[C@H](N)CO3)cc([C@H](O)Cn2ccc3cccc(C(=O)O)c32)c1
